Measurements: paper PMC2174028 (The Journal of Cell Biology, 2002)

Tests used:
P-selectin [1] = settings: ref Leppänen et al., 2000; cited from earlier work
P-selectin [2] = assay type: binding; settings: intermediate or high densities of P-selectin, as a function of wall shear stress

Question: With CC(=O)N[C@H]1[C@H]([C@H](O)[C@H](O)CO)O[C@@](O[C@H]2[C@@H](O)[C@@H](CO)O[C@@H](O[C@@H]([C@H](O[C@@H]3O[C@@H](C)[C@@H](O)[C@@H](O)[C@@H]3O)[C@H](C=O)NC(C)=O)[C@H](O)CO)[C@@H]2O)(C(=O)O)C[C@@H]1O [sLe^x, sialyl Lewis x] as the molecule, how does the “Affinity for P-selectin (in words)” value (P-selectin [1]) read?
Answer: very low affinity

B1: sPSGL-1: recombinant soluble form of human PSGL-1 comprising the entire extracellular domain, expressed in CHO cells (protein, UniProt Q14242 18-320, looked up)
extracellular domain: LQLWDTWADEAEKALGPLLARDRRQATEYEYLDYDFLPETEPPEMLRNSTDTTPLTGPGTPESTTVEPAARRSTGLDAGGAVTELTTELANMGNLSTDSAAMEIQTTQPAATEAQTTQPVPTEAQTTPLAATEAQTTRLTATEAQTTPLAATEAQTTPPAATEAQTTQPTGLEAQTTAPAAMEAQTTAPAAMEAQTTPPAAMEAQTTQTTAMEAQTTAPEATEAQTTQPTATEAQTTPLAAMEALSTEPSATEALSMEPTTKRGLFIPFSVSSVTHKGIPMAASNLSVNYPVGAPDHISVKQC
modifications: extracellular domain
Question: For B1, which “Initial tethering of ligand-coupled microspheres to P-selectin (in words)” value (P-selectin [2]) is on record?
Answer: tethered at identical rates
